In ChEMBL document CHEMBL3588816, “Molecular modeling of the human P2Y14 receptor: A template for structure-based design of selective agonist ligands” (Bioorg Med Chem, 2015) one finds EC50 and Activity data, which are given here for eight compounds.

Molecules are shown by their SMILES. The source made the active and inactive calls. No cut-off for these calls is given here.

The target in the first assay is T1, P2Y purinoceptor 14 (Homo sapiens, UniProt Q15391).
T1 sequence (Q15391 whole entry): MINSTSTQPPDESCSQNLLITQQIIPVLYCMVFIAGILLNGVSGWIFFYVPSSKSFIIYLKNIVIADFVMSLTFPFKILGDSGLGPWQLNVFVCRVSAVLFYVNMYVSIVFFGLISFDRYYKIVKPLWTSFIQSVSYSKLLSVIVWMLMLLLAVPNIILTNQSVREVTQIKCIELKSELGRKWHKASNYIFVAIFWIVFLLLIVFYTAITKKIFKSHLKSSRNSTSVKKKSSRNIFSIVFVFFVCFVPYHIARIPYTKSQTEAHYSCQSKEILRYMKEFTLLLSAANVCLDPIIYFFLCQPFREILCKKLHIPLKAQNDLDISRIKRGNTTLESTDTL
Put plainly: Agonist activity at recombinant human P2Y14 receptor expressed in African green monkey COS7 cells co-transfected with Galphaqi assessed as stimulation of phospholipase Cbeta.
Details: not given
It counts as cell-based, COS-7.
Regarding `O=c1ccn([C@@H]2O[C@H](COP(=O)(O)OP(=O)(O)O[C@H]3O[C@H](CO)[C@@H](O)[C@H](O)[C@H]3O)[C@@H](O)[C@H]2O)c(=S)[nH]1`, the EC50 (in general, the concentration that produces a half-maximal response) came to 11 nM.

A further assay deals with T2, P2Y purinoceptor 14 (Homo sapiens) (UniProt Q15391).
T2 sequence (whole entry): T1 sequence (Q15391 whole entry)
The experiment in a line: Agonist activity at recombinant human P2Y14 receptor expressed in African green monkey COS7 cells co-transfected with Galphaqi assessed as stimulation of phospholipase Cbeta at 10 uM. It counts as cell-based. The settings on record: COS-7.
With `[N-]=[N+]=N[C@@H]1[C@H](O)[C@@H](COP(=O)(O)OP(=O)(O)O[C@H]2O[C@H](CO)[C@@H](O)[C@H](O)[C@H]2O)O[C@H]1n1ccc(=O)[nH]c1=O`, the outcome was inactive.
On the same count and under the same terms, in the case of `O=c1[nH]c(=O)n([C@@H]2O[C@H](COP(=O)(O)OP(=O)(O)O[C@H]3O[C@H](CO)[C@@H](O)[C@H](O)[C@H]3O)[C@@H](O)[C@H]2O)cc1I` it was “inactive”; in that of `Nc1cn([C@@H]2O[C@H](COP(=O)(O)OP(=O)(O)O[C@H]3O[C@H](CO)[C@@H](O)[C@H](O)[C@H]3O)[C@@H](O)[C@H]2O)c(=O)[nH]c1=O`, “inactive”; in that of `O=c1ccn([C@]23C[C@H]2[C@H](COP(=O)(O)OP(=O)(O)O[C@H]2O[C@H](CO)[C@@H](O)[C@H](O)[C@H]2O)[C@@H](O)[C@H]3O)c(=O)[nH]1`, “inactive”.
Turning to `O=c1ccn([C@H]2[C@H](O)[C@H](O)[C@]3(COP(=O)(O)OP(=O)(O)O[C@H]4O[C@H](CO)[C@@H](O)[C@H](O)[C@H]4O)C[C@H]23)c(=O)[nH]1`, the result was inactive.
The same measure, in the same setting: to `[N-]=[N+]=Nc1cn([C@@H]2O[C@H](COP(=O)(O)OP(=O)(O)O[C@H]3O[C@H](CO)[C@@H](O)[C@H](O)[C@H]3O)[C@@H](O)[C@H]2O)c(=O)[nH]c1=O` belongs “inactive”; to `N[C@@H]1[C@H](O)[C@@H](COP(=O)(O)OP(=O)(O)O[C@H]2O[C@H](CO)[C@@H](O)[C@H](O)[C@H]2O)O[C@H]1n1ccc(=O)[nH]c1=O`, “inactive”.
